Numbers after ± are expanded uncertainties.
Details: Liquid, Capillary tube (Ostwald / Ubbelohde) method

CCCCCCCCCCO [decan-1-ol]
Details | viscosity [mPa·s]
298.15 K, 2000 kPa | 11.25 ± 0.12
298.15 K, 3990 kPa | 11.54 ± 0.12
298.15 K, 6010 kPa | 11.79 ± 0.12
298.15 K, 8010 kPa | 12.05 ± 0.12
298.15 K, 10010 kPa | 12.35 ± 0.13
298.15 K, 13010 kPa | 12.74 ± 0.13
298.15 K, 16010 kPa | 13.16 ± 0.14
298.15 K, 19010 kPa | 13.57 ± 0.14
298.15 K, 22010 kPa | 14.01 ± 0.14
298.15 K, 25000 kPa | 14.46 ± 0.15
298.15 K, 28000 kPa | 14.89 ± 0.15
298.15 K, 29990 kPa | 15.19 ± 0.16
303.15 K, 1990 kPa | 8.895 ± 0.093
303.15 K, 4000 kPa | 9.117 ± 0.095
303.15 K, 5980 kPa | 9.337 ± 0.097
303.15 K, 8010 kPa | 9.562 ± 0.1
303.15 K, 10020 kPa | 9.784 ± 0.1
303.15 K, 12980 kPa | 10.11 ± 0.11
303.15 K, 15970 kPa | 10.44 ± 0.11
303.15 K, 19020 kPa | 10.78 ± 0.11
303.15 K, 22000 kPa | 11.11 ± 0.12
303.15 K, 24980 kPa | 11.44 ± 0.12
303.15 K, 27980 kPa | 11.77 ± 0.12
303.15 K, 30010 kPa | 12 ± 0.12
313.15 K, 2030 kPa | 6.219 ± 0.066
313.15 K, 4020 kPa | 6.374 ± 0.067
313.15 K, 6000 kPa | 6.526 ± 0.069
313.15 K, 7980 kPa | 6.68 ± 0.071
313.15 K, 9980 kPa | 6.835 ± 0.072
313.15 K, 12990 kPa | 7.068 ± 0.074
313.15 K, 15990 kPa | 7.299 ± 0.077
313.15 K, 18990 kPa | 7.532 ± 0.079
313.15 K, 22010 kPa | 7.766 ± 0.082
313.15 K, 25020 kPa | 7.999 ± 0.084
313.15 K, 28020 kPa | 8.231 ± 0.086
313.15 K, 29980 kPa | 8.382 ± 0.088
323.15 K, 2000 kPa | 4.735 ± 0.051
323.15 K, 4010 kPa | 4.857 ± 0.052
323.15 K, 6010 kPa | 4.97 ± 0.053
323.15 K, 8010 kPa | 5.091 ± 0.055
323.15 K, 9990 kPa | 5.202 ± 0.056
323.15 K, 13010 kPa | 5.369 ± 0.057
323.15 K, 16010 kPa | 5.54 ± 0.059
323.15 K, 19020 kPa | 5.726 ± 0.061
323.15 K, 22020 kPa | 5.892 ± 0.063
323.15 K, 25010 kPa | 6.072 ± 0.064
323.15 K, 28000 kPa | 6.247 ± 0.066
323.15 K, 30010 kPa | 6.373 ± 0.067

Reference: the NIST ThermoML archive (doi:10.1021/acs.jced.8b01027)
